Results taken from patent publication US20140242012A1, “METHODS FOR TREATING UV-DAMAGED SKIN AND SCC TUMORS AND FOR REMOVING TATTOOS WITH TOPICAL INGENOL MEBUTATE” (LEO Laboratories Limited, priority 2011, published 2014).

Assays:
B16 = assay: In vitro cytotoxicity assay (SRB); assay type: cell-based, murine; conditions: 48 h, DMSO
Method: (§1) UV-13.1 and T7 cells are cultured in DMEM medium (Gibco Catalogue number 11960) supplemented with sodium-pyruvate (Gibco Catalogue number 11360-070, final concentration 1 mM), L-glutamine (Gibco, catalogue number 25030-081, final concentration 2 mM) and penicillin/streptomycin (Catalogue number 490269, diluted 1:100). B 16 cells are cultured in RPMI (QIMR) supplemented with 10% FBS and penicillin/streptomycin.
(§2) Cells are seeded with in 10,000 per microtitre wells in 100 μl of culture medium and incubated overnight to enable them to adhere to the bottom of the well. Quadruplicate wells aere treated with ingenol mebutate (PEP005 #250803 final concentration 0.232-232 μM) dissolved in DMSO (Sigma, D2650). […] Included in the assay were cells treated with vehicle alone (1% DMSO) and control. The treated cells are incubated at 37° C. for 48 h. Medium from the microtitre plates is tipped out; the wells are washed once with PBS to remove any excess FBS and then are fixed with methylated spirits for a minimum of 5 min. The methylated spirit is tipped off and the wells are washed once with tap water. A volume of 50 μl of sulforhodmain B (SRB) solution (0.4% SRB in 1% acetic acid) is added to each well and the plates are incubated at room temperature for a minimum of 15 min. The SRB solution is tipped off and the plates are washed twice with tap water and then twice with 1% acetic acid. The final wash of acetic acid is tapped out of the plate and 100 μl of 10 mM Tris base (unbuffered, pH>9) is added per well. The plate is incubated at room temperature for at least 5 min and then the absorbance is read on an ELISA plate reader at 564 nm.
(§3) To determine the in vitro sensitivity profile of T7 cells to ingenol mebutate treatment, a dose-response is generated by using the SRB stain to monitor cellular protein. Cells are seeded at high density and treated with ingenol mebutate (0.232-232 μM) for 48 h. The plates are fixed and are stained with SRB. […]
(§4) Cells are treated with 0.232-232 μM of ingenol mebutate. […] After 2 days, total protein is determined using SRB staining. […]

UV-13.1 = assay: In vitro cytotoxicity assay (SRB); assay type: cell-based, murine; conditions: 48 h, DMSO
Method: as §1, §2, §3, §4

T7 cells = assay: In vitro cytotoxicity assay (SRB); assay type: cell-based, murine; conditions: 48 h, DMSO
Method: as §1, §2, §3, §4

UVB-damaged skin = assay: Skin appearance and histology after treatment of UVB-damaged skin; assay type: in vivo, SKH1/hr mice
Method: For histological studies samples were fixed in 10% formalin and processed for paraffin embedding at the indicated times after ingenol mebutate treatment. Paraffin sections were stained with haematoxylin and eosin (H&E), or toluidine blue using standard protocols.
(§5) Three days after the last dose of UVB irradiation, an about 4 cm^2 dorsal area was topically treated daily for 2 days with 40 μl of 0.05% PEP005 gel or placebo gel. The treatment area was demarcated by a tattoo. Mice were culled 6 h (6 h) and 24 h (Day 1) after the first dose of 0.05% PEP005 gel and 24 h after the second dose of 0.05% PEP005 gel or placebo gel (Day 2). The samples were fixed in 10% formalin and processed by QIMR histology for paraffin embedding. Paraffin sections were stained with haematoxylin and eosin (H&E), Leder stain or toludine blue by QIMR Histotechnology, in accordance with standard protocols.
To identify the histological changes after 0.05% PEP005 gel treatment, skin was examined at different times after treatment; 6 h after the first dose was applied (6 h), 24 h after the first dose was applied (Day 1), and 24 h after the second dose was applied (Day 2). Placebo treated mice were treated with equivalent volumes of placebo gel and the skin examined 24 h after the second dose.
as §5, with “a ˜4 cm2” for “an about 4 cm^2”
Three days after the last dose of UVB irradiation, a ˜4 cm^2 dorsal area is topically treated daily for 2 days with 40 μl of 0.05% PEP005 gel or placebo gel. The treatment area is demarcated by a tattoo. […]

C/C=C(/C)C(=O)O[C@H]1C(C)=C[C@]23C(=O)[C@@H](C=C(CO)[C@@H](O)[C@]12O)[C@H]1[C@@H](C[C@H]3C)C1(C)C [ingenol mebutate]
90% lethal dose (LD90) (B16): 100 to 110 µM | 90% lethal dose (LD90) (UV-13.1): 100 to 110 µM | 90% lethal dose (LD90) (T7 cells): 100 to 110 µM | haemorrhage in treated skin (UVB-damaged skin; 24-48 h after treatment initiation): widespread haemorrhage | mast cells (toluidine blue staining) (UVB-damaged skin; 24 h): few toluidine blue staining cells could be seen | reduction of mean skin area within the tattooed treatment area (UVB-damaged skin; after healing up to 20-21 weeks, ~4 or ~10 cm2 area): about 3 fold
